Here are results for two compounds from ChEMBL document CHEMBL1149857, “Novel azaphilones, kasanosins A and B, which are specific inhibitors of eukaryotic DNA polymerases beta and lambda from Talaromyces sp” (Bioorg Med Chem, 2008).

Calls of active or inactive are those of the source. No cut-off for these calls is given here.

The target of experiment [1] is DNA polymerase beta (Rattus norvegicus) (UniProt P06766). The experiment is described as follows: Inhibition of rat DNA polymerase beta at 100 uM.
The target of experiment [2] is T1, DNA polymerase subunit gamma-1 (Homo sapiens) (UniProt P54098).
T1 sequence (whole entry): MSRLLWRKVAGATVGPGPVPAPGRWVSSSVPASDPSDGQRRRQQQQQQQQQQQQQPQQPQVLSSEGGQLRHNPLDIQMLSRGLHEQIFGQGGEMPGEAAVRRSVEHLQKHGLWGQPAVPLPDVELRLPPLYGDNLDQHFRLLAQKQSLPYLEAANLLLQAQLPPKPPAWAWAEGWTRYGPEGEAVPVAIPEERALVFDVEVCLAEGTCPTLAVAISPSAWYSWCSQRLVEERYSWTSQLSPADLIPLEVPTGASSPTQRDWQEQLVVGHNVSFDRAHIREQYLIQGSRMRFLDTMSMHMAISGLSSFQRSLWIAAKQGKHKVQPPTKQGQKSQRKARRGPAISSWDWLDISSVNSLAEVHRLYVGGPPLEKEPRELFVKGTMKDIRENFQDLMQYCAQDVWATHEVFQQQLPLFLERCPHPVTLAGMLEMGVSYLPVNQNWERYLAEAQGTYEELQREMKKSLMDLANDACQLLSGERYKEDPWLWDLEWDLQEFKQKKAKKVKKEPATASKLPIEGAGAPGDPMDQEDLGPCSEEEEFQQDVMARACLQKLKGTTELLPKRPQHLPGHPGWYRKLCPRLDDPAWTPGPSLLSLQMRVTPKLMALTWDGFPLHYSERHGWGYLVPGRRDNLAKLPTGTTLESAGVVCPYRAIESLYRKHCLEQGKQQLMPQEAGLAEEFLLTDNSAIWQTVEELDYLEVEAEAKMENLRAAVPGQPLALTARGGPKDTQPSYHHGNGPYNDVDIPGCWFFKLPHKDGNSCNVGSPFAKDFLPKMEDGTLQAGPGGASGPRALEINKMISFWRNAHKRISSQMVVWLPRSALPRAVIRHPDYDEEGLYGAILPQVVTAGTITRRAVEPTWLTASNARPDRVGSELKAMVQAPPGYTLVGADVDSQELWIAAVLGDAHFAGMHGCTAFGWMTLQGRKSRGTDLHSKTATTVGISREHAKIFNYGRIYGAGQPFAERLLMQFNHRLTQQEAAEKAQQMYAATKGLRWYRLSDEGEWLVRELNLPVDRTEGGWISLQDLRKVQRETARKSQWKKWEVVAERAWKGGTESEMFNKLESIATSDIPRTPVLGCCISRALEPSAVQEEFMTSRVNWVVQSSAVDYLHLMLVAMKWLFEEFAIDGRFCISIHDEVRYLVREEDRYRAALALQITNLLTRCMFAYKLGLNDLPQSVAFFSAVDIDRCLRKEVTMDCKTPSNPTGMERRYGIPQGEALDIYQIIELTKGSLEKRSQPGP
The experiment can be described thus: Inhibition of human DNA polymerase gamma at 100 uM.

A further experiment addresses DNA polymerase beta (Rattus norvegicus, UniProt P06766). The experiment can be described thus: Inhibition of rat DNA polymerase beta.
In experiment [3] the target is T2, DNA polymerase subunit gamma-1 (Homo sapiens, UniProt P54098).
T2 sequence (P54098 whole entry): T1 sequence (whole entry)
The experiment is described as follows: Inhibition of human DNA polymerase gamma.

The target of experiment [4] is DNA nucleotidylexotransferase (Bos taurus) (UniProt P06526). The experiment can be described thus: Inhibition of calf terminal deoxynucleotidyl transferase.
In a further experiment the test system is Brassica oleracea. The experiment can be described thus: Inhibition of cauliflower DNA polymerase alpha at 100 uM.
The test system of the next experiment is Oncorhynchus masou. The experiment can be described thus: Inhibition of cherry salmon DNA polymerase delta at 100 uM.
The test system of a further experiment is Escherichia coli. The experiment can be described thus: Inhibition of Escherichia coli DNA polymerase 1 Klenow fragment at 100 uM.
A further experiment deals with Tequatrovirus T4. The experiment can be described thus: Inhibition of T4 DNA polymerase at 100 uM.
The test system of the next experiment is Thermus aquaticus. The experiment can be described thus: Inhibition of Thermus aquaticus DNA polymerase at 100 uM.
The species named for a further experiment is Bos taurus. The experiment can be described thus: Inhibition of calf DNA polymerase alpha at 100 uM relative to control.
Experiment [5] addresses Human immunodeficiency virus type 1 reverse transcriptase (Human immunodeficiency virus 1) (UniProt Q72547). The experiment is described as follows: Inhibition of HIV1 reverse transcriptase at 100 uM relative to control.
The target in experiment [6] is Telomerase reverse transcriptase (Homo sapiens) (UniProt O14746). The experiment is described as follows: Inhibition of human telomerase at 100 uM relative to control.
The subject of the next experiment is Escherichia phage T7. The experiment can be described thus: Inhibition of T7 RNA polymerase […] at 100 uM relative to control.
For experiment [7], the target named is Inosine-5'-monophosphate dehydrogenase 2 (Mus musculus) (UniProt P24547). The experiment is described as follows: Inhibition of mouse IMP dehydrogenase 2 at 100 uM relative to control.
The target in experiment [8] is T3, DNA topoisomerase 1 (Homo sapiens) (UniProt P11387).
T3 sequence (whole entry): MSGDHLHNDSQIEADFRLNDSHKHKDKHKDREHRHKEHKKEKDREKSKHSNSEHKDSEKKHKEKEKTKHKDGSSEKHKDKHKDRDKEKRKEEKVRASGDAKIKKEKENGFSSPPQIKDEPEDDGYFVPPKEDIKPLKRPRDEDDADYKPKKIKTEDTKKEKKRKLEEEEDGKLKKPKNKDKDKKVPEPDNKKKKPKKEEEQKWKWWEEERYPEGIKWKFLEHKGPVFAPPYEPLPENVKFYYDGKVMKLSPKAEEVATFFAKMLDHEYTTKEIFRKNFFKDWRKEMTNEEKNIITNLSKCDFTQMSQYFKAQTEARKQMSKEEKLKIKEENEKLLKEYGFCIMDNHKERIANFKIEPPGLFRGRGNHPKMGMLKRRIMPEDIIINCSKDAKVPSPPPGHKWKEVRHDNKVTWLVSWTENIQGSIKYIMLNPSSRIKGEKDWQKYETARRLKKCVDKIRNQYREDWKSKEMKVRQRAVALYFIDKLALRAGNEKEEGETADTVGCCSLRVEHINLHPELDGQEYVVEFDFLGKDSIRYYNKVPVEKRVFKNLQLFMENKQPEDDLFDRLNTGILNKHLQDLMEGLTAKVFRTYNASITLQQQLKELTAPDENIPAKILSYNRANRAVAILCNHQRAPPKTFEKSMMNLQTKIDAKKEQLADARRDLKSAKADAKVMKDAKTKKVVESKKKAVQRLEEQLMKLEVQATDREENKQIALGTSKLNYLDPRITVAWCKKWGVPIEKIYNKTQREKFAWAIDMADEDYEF
The experiment can be described thus: Inhibition of human DNA topoisomerase 1 at 100 uM relative to control.

For experiment [9], the target named is DNA topoisomerase 2-alpha (Homo sapiens) (UniProt P11388). The experiment can be described thus: Inhibition of human DNA topoisomerase 2 at 100 uM relative to control.
The target of experiment [10] is Polynucleotide kinase (Enterobacteria phage T4) (UniProt P06855). The experiment can be described thus: Inhibition of T4 polynucleotide kinase at 100 uM relative to control. To be noted: Tequatrovirus T4.
In experiment [11] the target is Deoxyribonuclease-1 (Bos taurus) (UniProt P00639). The experiment can be described thus: Inhibition of bovine deoxyribonuclease 1 at 100 uM relative to control.
Deoxyribonuclease-1 (Bos taurus), sequence (P00639 whole entry): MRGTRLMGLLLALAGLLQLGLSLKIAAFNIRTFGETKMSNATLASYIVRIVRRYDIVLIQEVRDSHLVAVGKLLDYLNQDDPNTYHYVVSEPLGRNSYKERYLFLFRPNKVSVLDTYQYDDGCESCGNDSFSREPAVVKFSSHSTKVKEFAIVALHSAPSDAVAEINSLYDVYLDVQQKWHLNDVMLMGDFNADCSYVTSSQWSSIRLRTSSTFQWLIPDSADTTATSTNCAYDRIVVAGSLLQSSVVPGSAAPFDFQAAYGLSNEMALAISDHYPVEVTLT

Inosine-5'-monophosphate dehydrogenase 2 (Mus musculus), sequence (P24547 whole entry, looked up): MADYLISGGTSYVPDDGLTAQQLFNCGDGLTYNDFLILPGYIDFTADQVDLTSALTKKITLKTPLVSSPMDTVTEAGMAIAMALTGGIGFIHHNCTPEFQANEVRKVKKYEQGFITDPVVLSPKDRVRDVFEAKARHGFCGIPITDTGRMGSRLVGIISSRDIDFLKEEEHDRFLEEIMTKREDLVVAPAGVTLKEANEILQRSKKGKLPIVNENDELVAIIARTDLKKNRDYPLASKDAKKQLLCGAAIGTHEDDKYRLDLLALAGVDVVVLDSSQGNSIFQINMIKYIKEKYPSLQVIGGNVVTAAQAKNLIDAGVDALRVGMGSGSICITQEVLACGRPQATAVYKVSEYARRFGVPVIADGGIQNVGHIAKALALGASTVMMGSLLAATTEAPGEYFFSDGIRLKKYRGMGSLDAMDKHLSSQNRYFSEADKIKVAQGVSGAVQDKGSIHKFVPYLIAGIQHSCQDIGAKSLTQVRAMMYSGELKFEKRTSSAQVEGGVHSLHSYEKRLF
Telomerase reverse transcriptase (Homo sapiens), sequence (O14746 whole entry): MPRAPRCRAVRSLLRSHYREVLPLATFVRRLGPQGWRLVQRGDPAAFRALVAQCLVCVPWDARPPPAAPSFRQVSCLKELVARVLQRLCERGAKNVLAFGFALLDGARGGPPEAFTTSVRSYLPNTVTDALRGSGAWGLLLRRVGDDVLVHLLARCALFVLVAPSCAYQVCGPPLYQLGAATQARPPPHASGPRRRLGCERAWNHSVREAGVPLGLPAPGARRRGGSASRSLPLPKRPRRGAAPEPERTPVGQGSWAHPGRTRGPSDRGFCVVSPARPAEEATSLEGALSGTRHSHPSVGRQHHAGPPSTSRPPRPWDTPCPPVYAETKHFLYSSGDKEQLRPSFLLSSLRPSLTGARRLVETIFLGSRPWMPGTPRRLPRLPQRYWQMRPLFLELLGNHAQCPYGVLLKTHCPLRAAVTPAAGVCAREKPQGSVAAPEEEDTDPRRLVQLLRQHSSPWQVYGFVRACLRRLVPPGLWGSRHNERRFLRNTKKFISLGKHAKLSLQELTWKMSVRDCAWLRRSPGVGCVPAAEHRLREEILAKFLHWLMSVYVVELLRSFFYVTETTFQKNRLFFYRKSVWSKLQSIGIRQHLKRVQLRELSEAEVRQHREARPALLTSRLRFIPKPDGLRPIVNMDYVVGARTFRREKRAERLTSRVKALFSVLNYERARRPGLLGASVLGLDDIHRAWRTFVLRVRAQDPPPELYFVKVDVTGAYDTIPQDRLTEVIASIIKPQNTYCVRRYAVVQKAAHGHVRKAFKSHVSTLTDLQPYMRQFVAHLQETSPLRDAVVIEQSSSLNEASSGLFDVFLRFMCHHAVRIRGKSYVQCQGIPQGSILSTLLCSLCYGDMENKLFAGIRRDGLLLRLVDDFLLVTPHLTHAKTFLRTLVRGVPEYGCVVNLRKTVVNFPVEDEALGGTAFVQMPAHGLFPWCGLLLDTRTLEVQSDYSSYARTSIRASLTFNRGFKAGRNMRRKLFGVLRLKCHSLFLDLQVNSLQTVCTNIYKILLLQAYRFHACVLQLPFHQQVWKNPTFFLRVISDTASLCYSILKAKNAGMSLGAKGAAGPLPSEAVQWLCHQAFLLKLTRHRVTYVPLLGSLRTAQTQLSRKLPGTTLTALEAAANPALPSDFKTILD
Polynucleotide kinase (Enterobacteria phage T4), sequence (P06855 whole entry): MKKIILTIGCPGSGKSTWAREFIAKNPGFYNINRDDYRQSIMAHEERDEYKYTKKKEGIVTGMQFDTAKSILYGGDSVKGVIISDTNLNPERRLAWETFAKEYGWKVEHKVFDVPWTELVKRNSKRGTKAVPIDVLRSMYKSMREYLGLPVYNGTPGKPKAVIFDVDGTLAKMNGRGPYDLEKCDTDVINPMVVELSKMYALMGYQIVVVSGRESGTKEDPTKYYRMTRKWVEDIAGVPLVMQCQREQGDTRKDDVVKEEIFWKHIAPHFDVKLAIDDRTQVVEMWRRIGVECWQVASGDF
DNA topoisomerase 2-alpha (Homo sapiens), sequence (P11388 whole entry): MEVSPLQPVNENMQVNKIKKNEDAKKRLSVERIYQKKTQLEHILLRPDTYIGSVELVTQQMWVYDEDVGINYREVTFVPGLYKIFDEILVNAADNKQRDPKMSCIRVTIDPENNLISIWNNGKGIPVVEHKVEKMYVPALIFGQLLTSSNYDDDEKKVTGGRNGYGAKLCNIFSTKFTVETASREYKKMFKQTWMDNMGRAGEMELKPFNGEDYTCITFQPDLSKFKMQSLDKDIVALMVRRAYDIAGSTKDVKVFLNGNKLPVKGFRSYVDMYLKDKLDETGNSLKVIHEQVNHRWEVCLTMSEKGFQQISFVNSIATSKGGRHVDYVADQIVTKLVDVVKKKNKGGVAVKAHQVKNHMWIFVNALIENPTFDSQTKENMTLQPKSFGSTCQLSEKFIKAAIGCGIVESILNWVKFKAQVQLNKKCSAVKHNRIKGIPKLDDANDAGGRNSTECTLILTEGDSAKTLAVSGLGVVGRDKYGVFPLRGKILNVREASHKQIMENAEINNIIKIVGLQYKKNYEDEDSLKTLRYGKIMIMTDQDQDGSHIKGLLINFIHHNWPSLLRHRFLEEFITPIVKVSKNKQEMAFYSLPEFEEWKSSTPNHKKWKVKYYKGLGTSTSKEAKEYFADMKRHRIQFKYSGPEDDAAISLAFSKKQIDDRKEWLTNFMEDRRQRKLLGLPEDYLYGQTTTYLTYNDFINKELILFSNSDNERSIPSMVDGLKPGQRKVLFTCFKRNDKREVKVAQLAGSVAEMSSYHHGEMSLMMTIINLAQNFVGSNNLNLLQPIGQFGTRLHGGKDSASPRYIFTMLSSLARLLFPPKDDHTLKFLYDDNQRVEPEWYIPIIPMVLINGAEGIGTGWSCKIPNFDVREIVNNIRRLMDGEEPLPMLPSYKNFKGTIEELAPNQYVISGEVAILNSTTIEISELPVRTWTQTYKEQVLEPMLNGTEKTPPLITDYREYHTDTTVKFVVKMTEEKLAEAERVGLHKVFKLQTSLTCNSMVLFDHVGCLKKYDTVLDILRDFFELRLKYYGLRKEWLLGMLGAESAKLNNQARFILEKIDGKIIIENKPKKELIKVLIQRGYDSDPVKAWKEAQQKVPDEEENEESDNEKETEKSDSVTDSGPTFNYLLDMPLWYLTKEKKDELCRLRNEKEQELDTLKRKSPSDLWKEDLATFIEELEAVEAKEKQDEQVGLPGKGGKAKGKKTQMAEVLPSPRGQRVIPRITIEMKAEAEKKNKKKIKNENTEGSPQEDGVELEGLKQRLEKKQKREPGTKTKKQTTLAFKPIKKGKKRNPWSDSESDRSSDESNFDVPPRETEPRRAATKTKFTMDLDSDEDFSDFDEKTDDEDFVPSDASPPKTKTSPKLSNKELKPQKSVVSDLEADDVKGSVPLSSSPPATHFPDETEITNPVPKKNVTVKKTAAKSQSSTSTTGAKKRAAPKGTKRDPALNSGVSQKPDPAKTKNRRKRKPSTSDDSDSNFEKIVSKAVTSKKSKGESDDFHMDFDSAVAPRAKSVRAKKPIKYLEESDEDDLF
DNA nucleotidylexotransferase (Bos taurus), sequence (P06526 whole entry): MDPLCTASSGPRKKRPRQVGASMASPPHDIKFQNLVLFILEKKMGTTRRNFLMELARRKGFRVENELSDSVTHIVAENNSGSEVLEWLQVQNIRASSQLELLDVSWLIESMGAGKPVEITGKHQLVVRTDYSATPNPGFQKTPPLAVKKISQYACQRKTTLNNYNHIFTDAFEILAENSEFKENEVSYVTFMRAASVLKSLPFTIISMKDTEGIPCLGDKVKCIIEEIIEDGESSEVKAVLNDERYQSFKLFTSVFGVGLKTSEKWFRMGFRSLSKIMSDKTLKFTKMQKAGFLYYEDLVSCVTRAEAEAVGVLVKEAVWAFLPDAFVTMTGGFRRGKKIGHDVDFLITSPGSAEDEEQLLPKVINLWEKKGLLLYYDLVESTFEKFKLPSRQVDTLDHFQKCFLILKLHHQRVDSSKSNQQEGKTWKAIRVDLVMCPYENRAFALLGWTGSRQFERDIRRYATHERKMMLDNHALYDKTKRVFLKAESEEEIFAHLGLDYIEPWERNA

For `COc1cc(C)c(C(=O)O[C@H]2CC3=C(COC(/C=C/CO)=C3)C(=O)[C@@]2(C)O)c(O)c1` [KASANOSIN A], the result in experiment [1] and in [2] was Active. In addition, the IC50 at DNA polymerase beta was determined as 27.3 µM; in experiment [3] it was 35 µM. The result (in experiment [4]; with Brassica oleracea; with Oncorhynchus masou; in the experiment with Escherichia coli; with Tequatrovirus T4; in the experiment on Thermus aquaticus) was inactive. The outcome (in the experiment listed under Bos taurus; in [5]; in experiment [6]; with Escherichia phage T7; in experiment [7]; in experiment [8]) was inactive. Further, the result in experiment [9], in [10] and in experiment [11] was inactive.
For `COc1cc(C)c(C(=O)O[C@]2(C)C(=O)C3=C(C=C(/C=C/CO)OC3)C[C@@H]2O)c(O)c1` [KASANOSIN B], the result in [1] and in experiment [2] was Active. Moreover, the IC50 was determined as 60.1 µM at DNA polymerase beta and 72.9 µM in [3]. The result (in [4]; in the experiment on Brassica oleracea; in the experiment with Oncorhynchus masou; in the experiment with Escherichia coli; with Tequatrovirus T4; in the experiment with Thermus aquaticus) was inactive. Besides, the outcome (in the experiment filed under Bos taurus; in experiment [5]; in experiment [6]; in the experiment on Escherichia phage T7; in experiment [7]; in experiment [8]) was inactive. Moreover, the result in experiment [9], in experiment [10] and in experiment [11] was inactive.
